{"source": "paper PMC11438102", "about": "“Modulation of cannabinoid receptor 2 alters neuroinflammation and reduces formation of alpha-synuclein aggregates in a rat model of nigral synucleinopathy” (Journal of Neuroinflammation, 2024)", "key": {"[1]": {"format": "in vivo", "conditions": "6 mg/kg i.p. daily, ~2 h post-dose", "quoted_text": "One week after surgery, animals were randomly selected to receive daily systemic injections of either SMM-189 (intraperitoneal (i.p.), 6 mg/kg, n = 12) or vehicle (i.p., n = 12) and followed for 8 weeks (Figs. 1; n = 2 rats per group were removed due to poor nigral targeting). […] Plasma was also collected at baseline, 4 and 8 weeks post-AAV-hAsyn injections and CSF collected prior to perfusion to measure levels of SMM-189.\nBlood was collected from the tail vein at baseline and every 4 weeks post-AAV (~ 2 h post-treatment injection) for plasma to measure SMM-189 levels in low and high cohorts and for PBMCs to immunophenotype circulating immune cells in the high cohort animals. […] Tails were cleaned with ethanol and approximately 400μL of blood drawn from the lateral tail vein using a low dead space 25ga needle and syringe and blood immediately placed into an EDTA tube.\nCSF was collected at endpoint from low cohort animals. […] A sterile pulled micropipettes attached to tubing and a syringe punctured into the cisterna magna and clean CSF was aspirated and collected in a 0.2mL Eppendorf and stored at -80°C.\nA total of 50 µL aliquots of plasma or CSF were prepared by protein precipitation with 100 µL acetonitrile (spiked with the internal standard d^5-SMM-189) followed by centrifugation at 10,000g for 10 min at 4°C. Chromatographic separation of the supernatant was performed using a Zorbax SB-C18 3.5 μm 4.6 × 150 mm and a Shimadzu HPLC Nexera XR with Solvent Delivery Module LC-20ADXR, CTO-20AC prominence column oven (temperature 40 °C), a DGU-20A5R Degassing Unit, and a SIL-20ACXR autosampler. The aqueous mobile phase (A) was 95% water and 5% acetonitrile (B) was 100% acetonitrile."}, "[2]": {"tested_on": "CD206, YM1, TGFb, TNF, CB2 gene expression", "test": "qPCR of immune markers in frontal cortex and PBMCs", "format": "in vivo", "conditions": "rat low cohort", "description": "PBMCs were isolated from blood of low cohort rats at euthanasia (8 weeks) for qPCR analysis of immune genes and from blood of high cohort rats at baseline, 4 and 8 weeks after AAV2/5-human WT Asyn and evaluated with flow cytometry for a longitudinal immunophenotype assessment. Red blood cells were lysed using 1x RBC lysis buffer (Biolegend Cat#420301) for 5 min in the dark. Lysis buffer was neutralized by adding 1x HBSS (Gibco Cat#14175095). Cells were pelleted by centrifugation at 400g for 5 min, supernatant removed, and cells washed with HBSS. For the high cohort, cells were resuspended in 200μL of PBS and transferred to a 96-well v-bottom plate for flow cytometry staining. For low cohort, 10,000 cells were lysed in 600μL RLT lysis buffer (Qiagen Cat#79216) + 1% BME, further homogenized by centrifugation through a QiaShredder column (2 min at 21,130g). Lysate was then stored at -80°C and later processed for RNA extraction.\nTotal RNA was extracted from the frontal cortex and from PBMCs of low cohort animals and standardized across all samples and groups. In short, tissue was suspended in Trizol and homogenized with a TissueLyser (Retsch). Homogenate was incubated with chloroform and RNA separated by centrifugation of […] for 15 min at 4°C. RNA was further isolated with a RNAeasy mini kit (Qiagen). The RNA (1 µg) was then reverse transcribed to cDNA and analyzed with primers (Integrated DNA Technologies) for pro-inflammatory and anti-inflammatory immune markers and CB2 (Table 1) by qRT-PCR using protocols previously published. Resulting threshold cycle (Ct) values were analyzed by the 2-ΔΔCt method using the AAV2/5-hαsyn + vehicle as the control group and normalized to GAPDH for PBMCs and HPRT1 for frontal cortex as the housekeeping genes."}, "[3]": {"test": "Weekly body weights of AAV2/5-human WT Asyn rats", "format": "in vivo, rat", "conditions": "low and high cohorts, 6 mg/kg i.p. daily, over 8 weeks, vs vehicle", "description": "Sprague Dawley male rats (16–18 weeks of age, 400–525 g) were purchased from Charles River Laboratories and acclimated to Emory University animal facilities. Rats were pair housed in standard plexiglass cages under normal 12-hr light cycles and handled in accordance with protocols approved by the IACUC of Emory University in Atlanta, GA. Rats were administered unilateral injections of AAV2/5-human wild-type (WT) Asyn at titers of 2.9–4.3 × 10^11 vector genomes (vg)/mL (termed “low cohort”), which was previously shown to not induce nigral neurotoxicity. Thereby, generating a model with overexpression of human WT Asyn and Asyn-mediated neuroinflammation. One week after surgery, animals were randomly selected to receive daily systemic injections of either SMM-189 (intraperitoneal (i.p.), 6 mg/kg, n = 12) or vehicle (i.p., n = 12) and followed for 8 weeks (Figs. 1; n = 2 rats per group were removed due to poor nigral targeting). The dose of SMM-189 was based on a pharmacokinetic study in mice determining therapeutic brain-blood ratios as described below. […]\nAn additional cohort of rats (termed “high cohort”) was evaluated to determine effects of SMM-189 on immune cell populations in the brain, resident or infiltrating, and the periphery as measured by flow cytometry (Fig. 1). […] Brains were collected at endpoints, and brain immune cells isolated and evaluated using multicolor flow cytometry. […]"}, "[4]": {"tested_on": "deep cervical lymph nodes (DCLN) and splenocytes", "test": "Flow cytometry of deep cervical lymph nodes and splenocytes (high cohort)", "format": "in vivo, rat", "conditions": "8-week endpoint"}, "[5]": {"tested_on": "human Asyn (pSer129, proteinase K-resistant, total) in substantia nigra", "test": "Immunohistochemistry of Asyn species in substantia nigra, optical density", "format": "in vivo", "conditions": "rat low cohort, 6 mg/kg i.p. daily 7 weeks", "quoted_text": "Rats were administered unilateral injections of AAV2/5-human wild-type (WT) Asyn at titers of 2.9–4.3 × 10^11 vector genomes (vg)/mL (termed “low cohort”), which was previously shown to not induce nigral neurotoxicity [27]. Thereby, generating a model with overexpression of human WT Asyn and Asyn-mediated neuroinflammation. One week after surgery, animals were randomly selected to receive daily systemic injections of either SMM-189 (intraperitoneal (i.p.), 6 mg/kg, n = 12) or vehicle (i.p., n = 12) and followed for 8 weeks (Figs. 1; n = 2 rats per group were removed due to poor nigral targeting). […] After blood collection, animals were transcardially perfused with ice-cold PBS and the frontal cortex frozen for gene analysis, the striatum frozen for western blotting analysis, and the midbrain post-fixated in 4% PFA to be processed for immunohistochemistry. A second low cohort of rats (SMM-189 n = 6 or vehicle n = 3 with n = 2 removed due to poor nigral targeting) completed the study and provided extra tissue to perform additional immunohistochemical and western blotting analyses.\nBrains were post-fixed in 4%PFA for 48 h and transferred to 30% sucrose and cut at 40 μm on a freezing microtome. In brief, endogenous peroxidase was quenched with 3% hydrogen peroxide, blocked with 8% normal serum, avidin (Vector Cat#SP-2001) and 0.1% Triton-X and incubated overnight at 4°C with biotin (Vectorlabs Cat#SP-2001), normal serum and primary antibodies specific for Asyn (Clone 4B12; BioLegend Cat# 807801, RRID: AB_2564730), pSer129 Asyn (Clone EP1536Y; Abcam Cat# ab51253, RRID: AB_869973), CD68 (Bio-Rad Cat# MCA341R, RRID: AB_2291300), MHCII (Bio-Rad Cat# MCA46GA, RRID: AB_567369), and CD163 (Bio-Rad Cat# MCA342A, RRID: AB_2074557). Tissue was incubated in appropriate biotinylated secondary antibodies (1:200), amplified with Vectastain ABC kit (Vectorlabs Cat#PK-6100) and developed with diaminobenzidine tablets or diaminobenzidine drop kit with nickel (Vector Cat#SK-4100) for CD68 immunostaining. […]"}, "[6]": {"conditions": "frontal cortex, relative to vehicle"}}, "note": "“Also recorded” adds a separate entry of the source.", "data": [{"smiles": "O=C(c1ccccc1)c1cc(O)c(-c2cc(Cl)cc(Cl)c2)c(O)c1", "note": "[SMM-189]", "values": [{"measurement": "SMM-189 plasma levels compared to vehicle", "setting": "[1]; rat high cohort, 4 and 8 weeks", "value": "increased"}, {"measurement": "level of plasma SMM-189 compared to vehicle-treated rats", "setting": "[1]; rat low cohort, 4 and 8 weeks", "value": "Significant increases"}, {"measurement": "Levels of SMM-189 in the CSF, average ± SEM", "setting": "[1]; rat low cohort, endpoint", "value": "0.44 ± 0.22", "unit": "ng/mL"}, {"measurement": "TGFβ gene expression", "setting": "[2]; PBMCs, relative to vehicle", "value": "increased"}, {"measurement": "TNF transcript", "setting": "[2]; endpoint PBMCs, relative to vehicle", "value": "decreased"}, {"measurement": "CB2 gene expression", "setting": "[2]; frontal cortex and PBMCs, between groups", "value": "not different"}, {"measurement": "CD206 gene expression", "setting": "[2]; [6]", "value": "increased"}, {"measurement": "YM1 gene expression", "setting": "[2]; [6]", "value": "increased"}, {"measurement": "Rats weight, difference between treatment groups", "setting": "[3]", "value": "no significant differences"}, {"measurement": "DCLN myeloid populations including classical CD43-His48+ or CD11b+ monocytes", "setting": "[4]", "value": "No frequency difference"}, {"measurement": "Tregs (foxp3+CD4+) in DCLN", "setting": "[4]", "value": "significant reduction"}, {"measurement": "CD4 to CD8 lymphocyte ratio in DCLN", "setting": "[4]; p = 0.0503", "value": "trend was found in the CD4 to CD8 lymphocyte ratio to be decreased"}, {"measurement": "CD11b+ myeloid splenocytes", "setting": "[4]; p = 0.0541", "value": "trend to increase"}, {"measurement": "CD4 to CD8 lymphocyte ratio in spleen", "setting": "[4]; p = 0.0962", "value": "no effect; also recorded: trend was found in the CD4 to CD8 lymphocyte ratio to be decreased"}, {"measurement": "total human Asyn in substantia nigra, optical density", "setting": "[5]; clone 4B12, vs vehicle", "value": "not different"}, {"measurement": "pS129-ir optical density in substantia nigra, normalized to vehicle", "setting": "[5]; lesioned nigra", "value": "reduced"}, {"measurement": "proteinase-K resistant Asyn in substantia nigra, optical density", "setting": "[5]; vs vehicle", "value": "decreased"}]}]}
